Data: patent publication US20100280056A1, “IDENTIFICATION OF SUBJECTS LIKELY TO BENEFIT FROM STATIN THERAPY” (The Govt. of the U. S. as Represented by the Secretary of …, priority 2007, published 2010)

Test system: colon cancer cell lines
Assay: Total cholesterol content of colon cancer cell lines with and without atorvastatin (Cholesterol/Cholesteryl Ester Quantification Kit)
Format: cell-based
Settings: 25 μM atorvastatin, 24 hours, serum-free medium; cell lines with rs12654264 A allele compared to T allele (FIG. 4)
Method: Microsatellite stable (MSS) colon cancer cell lines (SW480, SW620, HT29, WiDr, and SW1417) were cultured in RPMI (supplemented with 10% Fetal Bovine Serum, 100 IU/mL of Penicillin, 100 IU/mL of Streptomycin, and 1× Non-Essential Amino Acid) at 37° C. in an atmosphere of 5% CO2. The cells were trypsinized and washed with PBS twice. […] The cholesterol level of each colon cancer line was measured using Cholesterol/Cholesteryl Ester Quantification Kit from Abcam (Cambridge, Mass.). Cells were plated into 6-well plates to reach approximate confluency of 70%. After overnight incubation, the cells were treated with 25 μM atorvastatin diluted in serum-free DMEM/F12 50:50 (supplemented with 100 IU/mL of Penicillin, 100 IU/mL of Streptomycin, and 1× Non-Essential Amino Acid) for 24 hours at 37° C., 5% CO2. After treatment, the cells were trypsinized and counted to 1×10^6 cells. The cells were pelleted, washed with PBS twice, and resuspended in 200 μl of pure chloroform with 1% Triton® X-100. The cell suspension was vortexed for 15 seconds, and centrifuged at maximum speed for 10 minutes. The lower (organic) phase was collected and air dried at 50° C., followed by vacuum drying for 30 minutes to remove the chloroform. The dried lipids were resuspended with 100 μl of the Cholesterol Reaction Buffer provided in the kit, and vortexed for 5 minutes vigorously at room temperature. […]

CC(C)c1c(C(=O)Nc2ccccc2)c(-c2ccccc2)c(-c2ccc(F)cc2)n1CC[C@@H](O)C[C@@H](O)CC(=O)O [atorvastatin]
statin-dependent cholesterol reduction: significantly greater statin-dependent cholesterol reduction
